Our source for the ED90 and LD50 values is patent publication EP0333351A2, “Platinum coordination compounds” (JOHNSON MATTHEY PUBLIC LIMITED COMPANY, priority 1988, dated 1989).

The data set relates to ADJ/PC6 tumour. The experiment in a line: Antitumour activity against the ADJ/PC6 tumour in mice, intraperitoneal route (LD50, ED90, T.I.). The following applies: for ED90: Table 1, ADJ/PC6 tumour in mice; for LD50: Table 1, mice. It is filed as in vivo. Here is the method: The invention will now be described by way of example only. A selection of compounds according to the invention were prepared by the above-described method, and were characterised by elemental analysis and infra red spectroscopy. The compounds were compared against known compounds and against each other for activity against the ADJ/PC6 tumour in mice, when given by the intraperitoneal route and the results are tabulated below.

The LD50 is the dose expected to kill half of the subjects tested. Low readings indicate greater toxicity, high ones lower toxicity. In the case of `N.N.[Cl][Pt]([Cl])([Cl])[Cl]` [Comparison A], the ED90 stood at 3.4 mg/kg and the LD50 was found to be 18 mg/kg.
`NC1CCCCC1.NC1CCCCC1.[Cl][Pt]([Cl])([Cl])[Cl]` [Comparison B]: the ED90 is listed as 10 mg/kg and the LD50 was 190 mg/kg.
